Measured values from BindingDB's records for doi:10.1038/sj.bjp.0705856 (Schering-Plough Research Institute, 2004).
Values joined by “and” are separate entries in the source; they are usually repeats but may differ in a detail not shown here. Identical values can stand only once.

Target: T1, Sphingosine 1-phosphate receptor 4 (Homo sapiens, UniProt O95977)
T1 sequence (O95977 whole entry): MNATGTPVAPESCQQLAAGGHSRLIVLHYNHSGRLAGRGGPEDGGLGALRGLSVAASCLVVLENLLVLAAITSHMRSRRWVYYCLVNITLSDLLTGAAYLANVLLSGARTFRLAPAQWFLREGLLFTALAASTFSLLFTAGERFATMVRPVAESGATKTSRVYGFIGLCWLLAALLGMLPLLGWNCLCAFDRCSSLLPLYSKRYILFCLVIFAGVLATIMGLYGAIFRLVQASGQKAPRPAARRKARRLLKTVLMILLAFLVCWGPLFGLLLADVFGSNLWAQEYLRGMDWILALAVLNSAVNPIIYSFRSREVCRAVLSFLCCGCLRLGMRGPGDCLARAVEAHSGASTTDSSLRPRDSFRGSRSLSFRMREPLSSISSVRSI

CCCCCCCCCCCCC/C=C\C(O)C(N)COP(=O)(O)O (stereo unspecified) [{[(4Z)-2-amino-3-hydroxyoctadec-4-en-1-yl]oxy}phosphonic acid]
Ki: 0.021 µM and 0.064 µM and 0.027 µM and 0.032 µM and 0.028 µM and 0.033 µM
